In patent publication US20250161273A1, “PHARMACEUTICAL COMPOSITION COMPRISING DIPHENYLDIAZOLE DERIVATIVES AND METHODS OF USE” (MODAG GMBH, priority 2022, published 2025):
Read-outs that look alike come from different tables or passages of the source.

Assays:
[1] = rat formulation study, PK after single oral administration; type: in vivo; conditions: Sprague-Dawley, plasma, male rats, 10 mg/kg single oral, read-out: Tmax, all four formulations
Procedure: A rat study was undertaken to assess the pharmacokinetics of anle138b in male Sprague Dawley rats (n=3/arm) following single oral administration of different formulations of anle138b, as follows, in Table 5.
Male Sprague Dawley (SD) rats (n=3/formulation) sourced from Charles River Italia were kept for 5 days acclimatization. Feeding regimen was ad libitum except on the day of dosing when the food was supplied 4 hours post dosing, having been removed the evening beforehand. Animals were orally dosed with anle138b (10 mg/kg) formulated as above. An individual serial plasma profile was drawn from each animal over a period of 24 hours after dosing.
The dose formulations were administered orally via gastric gavage (2 ml/kg); any remaining formulation after dosing was discarded.
After oral administration, blood samples were collected from the tail vein of each rat at the time-points detailed: Pre dose, 0.5, 1, 2, 4, 6, 8 and 24 hours after dosing […]
PK profiling was performed by non-compartmental analysis using Phoenix™ WinNonlin. […] The maximum observed peak plasma concentration (Cmax) and the time at which it was observed (Tmax) were determined by inspection of the observed data.
The relative bioavailability ([…]) of anle138b between dose formulations was calculated by comparing systemic exposure (AUC0-t), and are reported rounded to at least 2 significant figures. […]

[2] = phase 1 study in patients with mild to moderate Parkinson's disease (PK, safety); type: in vivo, human; conditions: PD patients; for AR AUC (accumulation ratio, geometric mean): AUC(0-tau); for Frel AUC(0-24) / Frel Cmax: Day 9 fed vs Day 7 QD fasted; for Cmax / Tmax / AUC / concentration at 24 h / Tmax at 7 days: Regimen A 150 mg QD (row prints fed, title fasted state); for Cmax: read-out: Cmax (geometric mean); for AUC: read-out: AUC(0-tau) (geometric mean); for concentration at 24 h: read-out: Ctau (geometric mean)
From the text: Study Title: A Single Part Study to Assess the Safety, Tolerability, Pharmacokinetics and Pharmacodynamics of Multiple Ascending Oral Doses of anle138b, and to Characterize the Effect of Food on the Pharmacokinetics of anle138b in Patients with Mild to Moderate Parkinson's Disease.
This was a two-center, double-blind, randomised, placebo-controlled study that enrolled twenty two (22) participants in cohorts (i.e. regimens) A-C. All completed the study per protocol. After completion of Cohorts A to C it was decided to add Cohorts D and E of 24 subjects. Cohort D expanded sample size of previous dosing regiments 150 mg and 300 mg QD and Cohort E administration of anle138b 300 mg for 28 days, under non fasted conditions.
Drug product used is described in section 1.3, supra, placebo was vehicle in capsule. Subjects were between 50 and 80 years of age with a diagnosis of idiopathic PD as defined by the Movement Disorders Society criteria (either fulfilling criteria for “Clinically Established PD” or for “Clinically Probable PD”). They had to present with Hoehn and Yahr stage I-III (i.e. able to walk unaided), and stable medication for PD for 1 month prior to inclusion and anticipated over the study period. The subjects were randomly assigned to receive one of three drug regimens, A, B or C, as follows: • Regimen A—150 mg (5×30 mg) anle138b oral capsules or matching placebo QD, for 7 consecutive days in the fasted state, followed by a single administration of 150 mg anle138b oral capsule or matching placebo on Day 9 in the fed state, • Regimen B—300 mg (10×30 mg) anle138b oral capsules or matching placebo QD, for 7 consecutive days in the fasted state, followed by a single administration of 300 mg anle138b oral capsule (10×30 mg capsules) or matching placebo on Day 9 in the fed state, • Regimen C—150 mg (5×30 mg) anle138b oral capsules or matching placebo BID (total 300 mg daily), […]
Primary endpoints provided safety and tolerability information for the test product by assessing: AEs, vital signs, ECGs, physical examinations and laboratory safety tests, and to provide additional safety and tolerability information for the test product taken also in the fed state by assessing: AEs, vital signs, ECGs, physical examinations and laboratory safety tests.
Secondary endpoints provided PK information for the test product in PD patients by assessing plasma exposure under fast and fed conditions.

[3] = Regimen A 150 mg, Day 1, fasted
[4] = Regimen B 300 mg, Day 1, fasted
[5] = human, plasma, oral, 150 mg, Day 1, tau 24 h
[6] = human, plasma, oral, 150 mg, Day 7, tau 24 h

Brc1cccc(-c2cc(-c3ccc4c(c3)OCO4)n[nH]2)c1 [anle138b, 3-(1,3-benzodioxol-5-yl)-5-(3-bromophenyl)-1H-pyrazole]
Tmax [1]: 2 to 8 h
AR Cmax (accumulation ratio, geometric mean) ([2]; Regimen A 150 mg QD, Day 7): 0.346
AR AUC (accumulation ratio, geometric mean) ([2]; Regimen A 150 mg QD, Day 7, tau 24 h): 0.371
T1/2, individual subject values ([2]; Regimen A 150 mg QD, Day 7, n = 2): 16.25 h
maximum individual AUC(0-24) as % of the exposure limit in the protocol [2, 3]: ~6.19%
maximum individual Cmax as % of the exposure limit in the protocol [2, 3]: approximately 24.9%
Frel AUC(0-24) ([2]; Regimen A 150 mg): 132%
Frel Cmax ([2]; Regimen A 150 mg): 104%
Tmax (median) ([2]; Regimen B 300 mg QD (row prints fed, title fasted state), Day 7): 1.6 h
AR Cmax (accumulation ratio, geometric mean) ([2]; Regimen B 300 mg QD, Day 7): 0.428
AR AUC (accumulation ratio, geometric mean) ([2]; Regimen B 300 mg QD, Day 7, tau 24 h): 0.351
maximum individual AUC(0-24) as % of the exposure limit in the protocol [2, 4]: ~8.4%
maximum individual Cmax as % of the exposure limit in the protocol [2, 4]: ~75.8%
Frel AUC(0-24) ([2]; Regimen B 300 mg): 109%
Frel Cmax ([2]; Regimen B 300 mg): 71.4%
maximum individual Cmax as % of the exposure limit in the protocol ([2]; Regimen C 150 mg BID, Day 1, fasted): ~26.4%
maximum individual AUC as % of the exposure limit in the protocol ([2]; Regimen C 150 mg BID, Day 1, fasted, AUC(0-12) vs limit based on AUC(0-24)): ~4.94%
AR Cmax (accumulation ratio, geometric mean) ([2]; Regimen C 150 mg BID, Day 7): 0.333
AR AUC (accumulation ratio, geometric mean) ([2]; Regimen C 150 mg BID, Day 7, tau 12 h): 0.299
safety and tolerability (in words) ([2]; doses up to 300 mg): safe and well tolerated
concentration at 3 h ([2]; human, CSF, po, 300 mg, multiple QD oral doses of 300 mg, fasted, 3 h post-dose on Day 5, read-out: CSF anle138b concentration (geometric mean)): 0.319 ng/mL
Kp at 3 h ([2]; human, CSF/plasma, multiple QD oral doses of 300 mg, fasted, 3 h post-dose on Day 5, read-out: CSF/plasma anle138b concentration ratio (geometric mean)): 0.0024
Cmax ([2]; human, plasma, oral, 150 mg, Day 1): ~462 ng/mL
Tmax ([2]; human, plasma, oral, 150 mg, Day 1, read-out: Tmax (median)): 1.25 h
Tmax ([2]; human, plasma, oral, 150 mg, Day 1, read-out: Tmax (range)): 1 to 1.5 h
AUC [2, 5]: ~1040 ng·h/mL
concentration at 24 h [2, 5]: 3.76 ng/mL
Cmax ([2]; human, plasma, oral, 150 mg, Day 7): ~160 ng/mL
Tmax at 7 days ([2]; human, plasma, oral, 150 mg, Day 7, read-out: Tmax (median)): 1 h
Tmax at 7 days ([2]; human, plasma, oral, 150 mg, Day 7, read-out: Tmax (range)): 1 to 2 h
AUC [2, 6]: ~388 ng·h/mL
concentration at 24 h [2, 6]: 1.86 ng/mL
half-life at 7 days ([2]; human, plasma, oral, 150 mg, Regimen A 150 mg QD, Day 7, n = 2, read-out: T1/2, individual subject values (converted)): 17.1 h
half-life ([2]; human, plasma, oral, 150 mg, Regimen A 150 mg single dose on Day 9, fed state, n = 3, read-out: T1/2 (geometric mean) (converted)): 15.9 h
AUC(0-t) ([2]; human, plasma, oral, 150 mg, Regimen A 150 mg single dose on Day 9, fed state, read-out: AUC(0-24) (geometric mean)): 513 ng·h/mL
AUC(0-t) ([2]; human, plasma, oral, 150 mg, Regimen A 150 mg single dose on Day 9, fed state, read-out: AUC(0-last) (geometric mean)): 542 ng·h/mL
